Data set [1] concerns the target T1, Serine/threonine-protein kinase pim-3 (Homo sapiens, UniProt Q86V86). Description: Inhibition of human PIM3 using FITC-(AHX)RSRHSSYPAGT-COOH as substrate after 90 mins by mobility shift assay in presence of 50 uM ATP.
The target of data set [2] is T2, Serine/threonine-protein kinase pim-2 (Homo sapiens, UniProt Q9P1W9). Description: Inhibition of human PIM2 using FITC-(AHX)RSRHSSYPAGT-COOH as substrate after 90 mins by mobility shift assay in presence of 50 uM ATP.
Target sequence in this assay (Q9P1W9 whole entry): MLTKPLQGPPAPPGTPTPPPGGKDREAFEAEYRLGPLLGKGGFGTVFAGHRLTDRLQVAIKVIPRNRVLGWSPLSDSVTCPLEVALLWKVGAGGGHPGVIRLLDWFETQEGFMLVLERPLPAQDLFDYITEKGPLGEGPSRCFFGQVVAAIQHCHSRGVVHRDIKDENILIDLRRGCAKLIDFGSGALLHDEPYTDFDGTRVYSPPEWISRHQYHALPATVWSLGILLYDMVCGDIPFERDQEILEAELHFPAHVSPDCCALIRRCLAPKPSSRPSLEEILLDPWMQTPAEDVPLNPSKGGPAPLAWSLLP
Data set [3] addresses T3, Serine/threonine-protein kinase pim-1 (Homo sapiens, UniProt P11309). Description: Inhibition of human PIM1 using FITC-(AHX)RSRHSSYPAGT-COOH as substrate after 90 mins by mobility shift assay in presence of 50 uM ATP.
Target sequence in this assay (P11309 whole entry): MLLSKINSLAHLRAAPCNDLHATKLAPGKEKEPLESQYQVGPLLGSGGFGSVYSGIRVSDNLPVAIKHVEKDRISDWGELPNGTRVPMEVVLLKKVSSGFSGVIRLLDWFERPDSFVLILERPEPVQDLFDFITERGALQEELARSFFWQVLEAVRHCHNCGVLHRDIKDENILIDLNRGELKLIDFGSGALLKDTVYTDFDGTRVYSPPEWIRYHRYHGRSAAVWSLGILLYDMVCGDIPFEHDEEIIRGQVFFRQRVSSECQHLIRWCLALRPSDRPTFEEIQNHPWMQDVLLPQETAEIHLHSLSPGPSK
Data set [4] addresses T3, Serine/threonine-protein kinase pim-1. As to conditions: 1 uM.
Target sequence in this assay (P11309 whole entry, looked up): as the sequence (P11309 whole entry) above
Data set [5] concerns the target T2, Serine/threonine-protein kinase pim-2. As to conditions: 1 uM.
Target sequence in this assay (Q9P1W9 whole entry, looked up): as the sequence (Q9P1W9 whole entry) above
A short description of a further data set: in vitro. As to conditions: rat, liver microsomes. (In general: Liver microsomes are vesicles of endoplasmic reticulum, rich in cytochrome P450 enzymes.)
The nature of data set [6]: Antiproliferative activity against human MOLM16 cells after 72 hrs by Cell Titer-Blue assay. As to conditions: MOLM16, 72 h. Type of data set: functional. On the technique in general: Alamar Blue is a resazurin reagent that responds to reducing activity.
Data set [7] in a line: Equilibrium solubility of the compound in phosphate buffer after 24 hrs at pH 7.4. Type of data set: physicochemical.
The target of data set [8] is Phosphatidylinositol 4,5-bisphosphate 3-kinase catalytic subunit gamma isoform (Homo sapiens) (UniProt P48736). The experiment in a line: Inhibition of PI3Kgamma at 1 uM.
In data set [9] the target is T1, Serine/threonine-protein kinase pim-3. The experiment in a line: Inhibition of human PIM3 using FITC-(AHX)RSRHSSYPAGT-COOH as substrate after 90 mins by mobility shift assay in presence of 5 mM ATP.
Data set [10] deals with T3, Serine/threonine-protein kinase pim-1. The experiment in a line: Inhibition of human PIM1 using FITC-(AHX)RSRHSSYPAGT-COOH as substrate after 90 mins by mobility shift assay in presence of 5 mM ATP.
Target sequence in this assay (P11309 whole entry): as the sequence (P11309 whole entry) above
The target of data set [11] is Cyclin-dependent kinase 2 (Homo sapiens) (UniProt P24941). The experiment in a line: Inhibition of CDK2 at 1 uM.
The target of data set [12] is T1, Serine/threonine-protein kinase pim-3. As to conditions: 1 uM.
Data set [13] deals with Voltage-gated inwardly rectifying potassium channel KCNH2 (Homo sapiens, UniProt Q12809). The experiment in a line: Inhibition of human ERG.
The target in data set [14] is T2, Serine/threonine-protein kinase pim-2. Description: Inhibition of human PIM2 using FITC-(AHX)RSRHSSYPAGT-COOH as substrate after 90 mins by mobility shift assay in presence of 5 mM ATP.
Target sequence in this assay (Q9P1W9 whole entry): as the sequence (Q9P1W9 whole entry) above
Data set [15] in a line: Dissociation constant, pKa of the compound. Type of data set: physicochemical.

The source of these data is ChEMBL document CHEMBL2046384, “Discovery of novel benzylidene-1,3-thiazolidine-2,4-diones as potent and selective inhibitors of the PIM-1, PIM-2, and PIM-3 protein kinases” (Bioorg Med Chem Lett, 2012).

By IC50 is commonly meant the concentration at which inhibition is half-maximal. The term inhibition denotes the drop in the measured response relative to a control, in per cent. The microsomal CLint is the rate of metabolic loss divided by the concentration. The term GI50 denotes the concentration giving 50% growth inhibition. The low end stands for more potent growth inhibition, the high end for less potent growth inhibition. As a reminder, the thermodynamic solubility is solubility found after equilibrating the solid with the medium. A word on the pKa: it is the negative logarithm of the acid dissociation constant.

In brackets after ≈: the same amount, converted by molar mass. Activity calls are given as the source filed them. The rule behind the calls is not given here. Some results are limits rather than exact numbers.

Sequence of Voltage-gated inwardly rectifying potassium channel KCNH2 (Q12809 whole entry): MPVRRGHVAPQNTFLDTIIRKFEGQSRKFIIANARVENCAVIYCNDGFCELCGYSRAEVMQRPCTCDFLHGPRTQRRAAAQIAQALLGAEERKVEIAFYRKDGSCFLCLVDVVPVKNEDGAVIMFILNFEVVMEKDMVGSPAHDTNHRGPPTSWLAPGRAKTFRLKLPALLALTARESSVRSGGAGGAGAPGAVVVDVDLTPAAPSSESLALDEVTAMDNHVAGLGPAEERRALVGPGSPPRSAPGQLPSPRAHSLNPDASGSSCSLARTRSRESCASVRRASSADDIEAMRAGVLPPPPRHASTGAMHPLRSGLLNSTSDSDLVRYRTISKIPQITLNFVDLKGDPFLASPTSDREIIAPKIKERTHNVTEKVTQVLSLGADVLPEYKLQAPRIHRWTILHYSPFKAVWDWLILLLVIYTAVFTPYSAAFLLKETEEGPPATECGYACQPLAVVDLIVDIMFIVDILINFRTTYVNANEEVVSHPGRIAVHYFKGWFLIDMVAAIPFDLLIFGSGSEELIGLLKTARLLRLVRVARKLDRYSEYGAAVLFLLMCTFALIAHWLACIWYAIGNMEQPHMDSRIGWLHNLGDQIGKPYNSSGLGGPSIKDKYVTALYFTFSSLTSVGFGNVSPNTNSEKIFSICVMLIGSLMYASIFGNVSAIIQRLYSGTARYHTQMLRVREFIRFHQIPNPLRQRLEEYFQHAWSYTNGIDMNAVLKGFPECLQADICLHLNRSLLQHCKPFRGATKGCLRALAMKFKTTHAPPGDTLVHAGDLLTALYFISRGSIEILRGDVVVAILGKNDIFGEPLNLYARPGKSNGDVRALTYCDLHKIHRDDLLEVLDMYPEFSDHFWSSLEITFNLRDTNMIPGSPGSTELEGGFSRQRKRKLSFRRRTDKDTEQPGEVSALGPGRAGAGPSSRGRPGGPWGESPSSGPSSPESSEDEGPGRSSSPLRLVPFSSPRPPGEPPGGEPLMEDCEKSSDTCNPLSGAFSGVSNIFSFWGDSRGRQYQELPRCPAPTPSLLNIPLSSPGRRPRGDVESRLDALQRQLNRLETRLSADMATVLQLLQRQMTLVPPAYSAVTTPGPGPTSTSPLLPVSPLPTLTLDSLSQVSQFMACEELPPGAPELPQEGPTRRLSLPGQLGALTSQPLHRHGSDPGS
Sequence of Phosphatidylinositol 4,5-bisphosphate 3-kinase catalytic subunit gamma isoform (Homo sapiens) (P48736 whole entry, looked up, canonical isoform): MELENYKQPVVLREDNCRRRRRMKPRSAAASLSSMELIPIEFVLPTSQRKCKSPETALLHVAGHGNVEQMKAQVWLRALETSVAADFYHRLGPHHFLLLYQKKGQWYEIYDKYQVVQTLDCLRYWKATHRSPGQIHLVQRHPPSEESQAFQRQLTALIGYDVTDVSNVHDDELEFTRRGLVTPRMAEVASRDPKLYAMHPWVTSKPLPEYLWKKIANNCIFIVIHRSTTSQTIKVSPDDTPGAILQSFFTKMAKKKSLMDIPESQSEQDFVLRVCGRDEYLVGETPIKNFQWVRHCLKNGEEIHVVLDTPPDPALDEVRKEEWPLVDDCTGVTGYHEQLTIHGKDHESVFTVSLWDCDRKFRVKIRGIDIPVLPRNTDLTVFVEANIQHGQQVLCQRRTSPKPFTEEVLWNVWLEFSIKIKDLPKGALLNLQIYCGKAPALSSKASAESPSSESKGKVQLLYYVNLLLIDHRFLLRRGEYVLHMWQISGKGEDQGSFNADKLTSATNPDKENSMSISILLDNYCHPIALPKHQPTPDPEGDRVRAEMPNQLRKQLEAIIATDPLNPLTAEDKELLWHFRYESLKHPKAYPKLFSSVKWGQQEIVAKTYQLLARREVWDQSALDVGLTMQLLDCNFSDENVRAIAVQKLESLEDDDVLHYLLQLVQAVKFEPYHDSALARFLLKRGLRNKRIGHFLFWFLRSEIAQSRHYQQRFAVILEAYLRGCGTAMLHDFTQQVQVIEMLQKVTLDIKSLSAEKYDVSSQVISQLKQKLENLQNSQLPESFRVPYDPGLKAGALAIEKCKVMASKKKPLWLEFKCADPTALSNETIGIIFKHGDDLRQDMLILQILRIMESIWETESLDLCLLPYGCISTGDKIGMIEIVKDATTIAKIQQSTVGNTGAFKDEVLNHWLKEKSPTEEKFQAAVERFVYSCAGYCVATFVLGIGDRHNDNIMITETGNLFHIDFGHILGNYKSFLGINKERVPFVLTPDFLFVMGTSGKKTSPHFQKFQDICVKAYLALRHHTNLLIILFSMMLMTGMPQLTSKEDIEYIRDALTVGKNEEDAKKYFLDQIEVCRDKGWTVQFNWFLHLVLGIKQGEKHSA

With `N[C@H]1CCN(c2c(Cl)cccc2/C=C2\SC(=O)NC2=O)C1`, the IC50 is under 5 nM in data set [1], 25 nM in [2] and under 6 nM in data set [3].
As for `N[C@@H]1CCCN(c2c(Br)cccc2/C=C2\SC(=O)NC2=O)C1`, the inhibition in data set [4], in data set [5] and in data set [12] was over 50% in each case. Further, the microsomal CLint at 2 µM in “in vitro” was under 4.8 µL/min/mg. This compound showed a GI50 in data set [6] of 100 nM. The solubility (thermodynamic) at 24 h in data set [7] is over 720 µM. Moreover, the inhibition entry in data set [8] and in data set [11] was “inactive” in each case. Further, the IC50 was 10 nM in data set [9]; 10 nM in data set [10]; under 3 nM in data set [1]; under 3 nM in [2]; under 3 nM in [3]; over 30000 nM in data set [13]. The IC50 in data set [14] turned out to be 150 nM.
The compound `N[C@@H]1CCCN(c2c(/C=C3\SC(=O)NC3=O)cccc2-c2ccncc2)C1` had a GI50 in [6] of 2280 nM. For the same compound, the thermodynamic solubility at 24 h in [7] was 142 µM (≈ 54 µg/mL). Also, the IC50 is 38 nM in data set [9]; 4 nM in [10]; 4 nM in [1]; 19 nM in data set [2]; under 3 nM in data set [3]; 690 nM in data set [14].
In turn, `N[C@@H]1CCCN(c2c(/C=C3\SC(=O)NC3=O)cccc2-c2ccccc2)C1` registered a microsomal CLint at 2 µM in “in vitro” of under 4.8 µL/min/mg. This compound registered a GI50 in data set [6] of 20 nM. The same compound yielded a solubility (thermodynamic) at 24 h in [7] of 263 µM (≈ 99.8 µg/mL). In data set [13], this compound registered an IC50 of over 30000 nM.
In the case of `N[C@@H]1CCCN(c2ccccc2/C=C2\SC(=O)NC2=O)C1`, it took 490 nM to inhibit growth in data set [6] by half (GI50). Also, the solubility (thermodynamic) at 24 h in data set [7] stood at 782 µM (≈ 237 µg/mL). The IC50 is 240 nM in data set [9]; 100 nM in [10]; 9 nM in data set [1]; 14 nM in [2]; 9 nM in data set [3]; over 30000 nM in data set [13]. Moreover, the IC50 in [14] was 1200 nM.
As for `O=C1NC(=O)/C(=C/c2ccccc2)S1`, in data set [15], the pKa amounted to 6.14. Also, the results for the IC50 in data set [1], in data set [2] and in data set [3] were 730 nM, 4700 nM and 890 nM, respectively.
Regarding `O=C1NC(=O)/C(=C/c2ccccc2N2CCNCC2)S1`, the IC50 was 36 nM in data set [1], 180 nM in data set [2] and 28 nM in [3].
In turn, `CC(C)Oc1cccc(/C=C2\SC(=O)NC2=O)c1N1CCC[C@@H](N)C1` showed a microsomal CLint at 2 µM in “in vitro” of under 4.8 µL/min/mg. For the same compound, growth in [6] was halved (GI50) at 20 nM. The same compound came in with a solubility (thermodynamic) at 24 h in data set [7] of 378 µM (≈ 137 µg/mL). The IC50 is under 3 nM in data set [9]; under 4 nM in data set [10]; under 3 nM in data set [1]; under 3 nM in data set [2]; under 3 nM in [3]; 50 nM in [14].
As to `N[C@@H]1CCCN(c2c(Cl)cccc2/C=C2\SC(=O)NC2=O)C1`, the microsomal CLint at 2 µM in the data set “in vitro” was determined as 8.8 µL/min/mg. In addition, growth in [6] was halved (GI50) at 190 nM. In addition, the IC50 in [9] is 20 nM; in data set [10] it was 20 nM; in data set [1], under 3 nM; in data set [2], 5 nM; in data set [3], under 3 nM; in data set [14] it was 310 nM.
As for `CC(C)(C)OC(=O)N[C@H]1CCN(c2ccccc2/C=C2\SC(=O)NC2=O)C1`, the IC50 in [1] worked out at 3200 nM; in data set [2], 15000 nM; in [3], 1500 nM.
As to `CCOc1cc(/C=C2\SC(=O)NC2=O)ccc1O`, the results for the IC50 in data set [1], in [2] and in [3] were 390 nM, 160 nM and 160 nM, respectively.
Consider `CC(C)COc1cccc(/C=C2\SC(=O)NC2=O)c1N1CCC[C@@H](N)C1`, for which, in “in vitro”, the microsomal CLint at 2 µM is 6.9 µL/min/mg. In addition, in data set [6], the GI50 came to 80 nM. In data set [7], this compound registered a solubility (thermodynamic) at 24 h of 337 µM (≈ 127 µg/mL). For the same compound, the IC50 was under 3 nM in data set [9]; 8 nM in data set [10]; under 3 nM in data set [1]; under 4 nM in data set [2]; under 3 nM in [3]; 23000 nM in [13]. Besides, the half-maximal inhibitory concentration (IC50) in data set [14] came to 140 nM.
For `O=C1NC(=O)/C(=C/c2cccc(Cl)c2N2CCNCC2)S1`, the IC50 in data set [1] worked out at 26 nM; in [2] it was 82 nM; in data set [3], 18 nM.
Taken in the same sequence, the figures for `CN(C)C1CCN(c2ccccc2/C=C2\SC(=O)NC2=O)C1` (configuration not stated) were 110 nM, 500 nM and 61 nM.
Consider `N[C@H]1CCN(c2cc(Cl)ccc2/C=C2\SC(=O)NC2=O)C1`, for which the IC50 worked out at 5 nM in data set [1], 79 nM in data set [2] and 12 nM in [3].
In the case of `N[C@H]1CCN(c2ccccc2/C=C2\SC(=O)NC2=O)C1`, the IC50 in data set [1] was determined as 42 nM; in [2], 250 nM; in data set [3], 36 nM.
As to `CCOc1cccc(/C=C2\SC(=O)NC2=O)c1N1CCC[C@@H](N)C1`, in the data set “in vitro”, the microsomal CLint at 2 µM is 12.1 µL/min/mg. The compound also had a GI50 in [6] of 80 nM. In data set [7], this compound gave a solubility (thermodynamic) at 24 h of over 1000 µM. In addition, the IC50 in data set [9] was 6 nM; in data set [10], 10 nM; in data set [1], under 3 nM; in [2], under 4 nM; in data set [3] it was under 3 nM; in data set [14], 160 nM.
As for `COc1ccc(/C=C2\SC(=O)NC2=O)cc1OC`, the IC50 in data set [1] came to 280 nM; in [2], 2500 nM; in data set [3] it was 950 nM.
Compound `COc1cccc(/C=C2\SC(=O)NC2=O)c1N1CCC[C@@H](N)C1` registered a microsomal CLint at 2 µM in the data set “in vitro” of 3.9 µL/min/mg. Further, in data set [6], the GI50 was 210 nM. In data set [7], this compound came in with a solubility (thermodynamic) at 24 h of over 1000 µM. Besides, the IC50 in [9] is 10 nM; in [10] it was 20 nM; in [1], under 3 nM; in data set [2] it was 5 nM; in data set [3], under 3 nM; in data set [14], 320 nM.
